Assay results: patent US12559492B2, “BRAF degraders” (C4 Therapeutics, Inc., priority 2020, dated 2026)

Molecular target: BRAF^V600E protein (Homo sapiens, UniProt P15056, V600E)
Test: HiBiT cellular BRAF V600E degradation assay
Format: cell-based
Details: 24 h incubation; for DC50: A375.10 cells (HiBiT tag knocked in at N-terminal of BRAF V600E), concentration at which 50% of total cellular BRAF V600E is degraded; for Emax / HiBit 24 h Emax: A375.10 cells, Emax = amount of residual protein remaining in the cell after compound treatment; for Emax: read-out: HiBit 24 h Emax

Sequence of BRAF^V600E protein (P15056 whole entry V600E): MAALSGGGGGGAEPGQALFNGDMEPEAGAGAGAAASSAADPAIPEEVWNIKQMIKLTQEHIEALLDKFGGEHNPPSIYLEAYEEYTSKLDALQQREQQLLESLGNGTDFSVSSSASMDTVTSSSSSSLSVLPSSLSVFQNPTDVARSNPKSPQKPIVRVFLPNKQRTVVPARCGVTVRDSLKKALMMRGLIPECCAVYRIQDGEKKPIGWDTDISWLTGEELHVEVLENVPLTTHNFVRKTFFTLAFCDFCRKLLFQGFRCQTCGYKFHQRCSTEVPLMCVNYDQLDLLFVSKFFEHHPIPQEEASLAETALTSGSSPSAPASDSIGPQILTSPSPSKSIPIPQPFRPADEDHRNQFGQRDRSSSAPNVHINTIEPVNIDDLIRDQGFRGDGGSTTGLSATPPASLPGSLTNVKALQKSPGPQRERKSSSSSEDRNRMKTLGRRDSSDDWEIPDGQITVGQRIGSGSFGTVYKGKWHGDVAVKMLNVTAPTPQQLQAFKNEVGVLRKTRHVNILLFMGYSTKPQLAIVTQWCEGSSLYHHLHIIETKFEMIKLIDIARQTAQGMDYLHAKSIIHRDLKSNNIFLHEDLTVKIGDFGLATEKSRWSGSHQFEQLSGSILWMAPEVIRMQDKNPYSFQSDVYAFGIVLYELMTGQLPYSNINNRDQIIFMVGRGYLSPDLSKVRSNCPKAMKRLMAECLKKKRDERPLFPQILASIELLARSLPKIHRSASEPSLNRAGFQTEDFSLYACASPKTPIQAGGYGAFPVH

SMILES	DC50	Emax	HiBit 24 h Emax
CCN(C)S(=O)(=O)Nc1ccc(F)c(C(=O)c2c[nH]c3ncc(-c4ccc(CN5CCN(CC(=O)N6CCC(c7ccc(NC8CCC(=O)NC8=O)cc7)CC6)CC5)nc4)cc23)c1F (stereo not drawn) [Example A7, 5-[6-[[4-[2-[4-[4-[(2,6-Dioxopiperidin-3-yl)amino]phenyl]piperidin-1-yl]-2-oxoethyl]piperazin-1-yl]methyl]pyridin-3-yl]-3-[3-[[ethyl(methyl)sulfamoyl]amino]-2,6-difluorobenzoyl]-1H-pyrrolo[2,3-b]pyridine;2,2,2-trifluoroacetic acid]	16.8 nM	12.9%	–
CCN(C)S(=O)(=O)Nc1ccc(F)c(C(=O)c2c[nH]c3ncc(-c4ccc(N5CCN(C(=O)CN6CCC(c7ccc(NC8CCC(=O)NC8=O)cc7)CC6)CC5)nc4)cc23)c1F (stereo not drawn) [Example A8, 5-[6-[4-[2-[4-[4-[(2,6-Dioxopiperidin-3-yl)amino]phenyl]piperidin-1-yl]acetyl]piperazin-1-yl]pyridin-3-yl]-3-[3-[[ethyl(methyl)sulfamoyl]amino]-2,6-difluorobenzoyl]-1H-pyrrolo[2,3-b]pyridine]	8.18 nM	9.42%	–
CCN(C)S(=O)(=O)Nc1ccc(F)c(C(=O)c2c[nH]c3ncc(-c4ccc(CN5CCN(C(=O)CN6CCC(c7ccc(NC8CCC(=O)NC8=O)cc7)CC6)CC5)nc4)cc23)c1F (stereo not drawn) [Example A9, 5-[6-[[4-[2-[4-[4-[(2,6-Dioxopiperidin-3-yl)amino]phenyl]piperidin-1-yl]acetyl]piperazin-1-yl]methyl]pyridin-3-yl]-3-[3-[[ethyl(methyl)sulfamoyl]amino]-2,6-difluorobenzoyl]-1H-pyrrolo[2,3-b]pyridine]	30 nM	14%	–
CCN(C)S(=O)(=O)Nc1ccc(F)c(C(=O)c2c[nH]c3ncc(-c4cnc(N5CCN(C(=O)CN6CCC(c7ccc(NC8CCC(=O)NC8=O)cc7)CC6)CC5)nc4)cc23)c1F (stereo not drawn) [Example A10, 5-[2-[4-[2-[4-[4-[(2,6-Dioxopiperidin-3-yl)amino]phenyl]piperidin-1-yl]acetyl]piperazin-1-yl]pyrimidin-5-yl]-3-[3-[[ethyl(methyl)sulfamoyl]amino]-2,6-difluorobenzoyl]-1H-pyrrolo[2,3-b]pyridine]	3 nM	8%	–
CCN(C)S(=O)(=O)Nc1ccc(F)c(C(=O)c2c[nH]c3ncc(-c4ccc(N5CCN(C(=O)CN6CCN(c7ccc(NC8CCC(=O)NC8=O)cc7)CC6)CC5)nc4)cc23)c1F (stereo not drawn) [Example A11, 5-[6-[4-[2-[4-[4-[(2,6-Dioxopiperidin-3-yl)amino]phenyl]piperazin-1-yl]acetyl]piperazin-1-yl]pyridin-3-yl]-3-[3-[[ethyl(methyl)sulfamoyl]amino]-2,6-difluorobenzoyl]-1H-pyrrolo[2,3-b]pyridine]	6.71 nM	11.6%	–
CCN(C)S(=O)(=O)Nc1ccc(F)c(C(=O)c2c[nH]c3ncc(-c4ccc(CN5CCN(C(=O)CN6CCN(c7ccc(NC8CCC(=O)NC8=O)cc7)CC6)CC5)nc4)cc23)c1F (stereo not drawn) [Example A12, 5-[6-[[4-[2-[4-[4-[(2,6-Dioxopiperidin-3-yl)amino]phenyl]piperazin-1-yl]acetyl]piperazin-1-yl]methyl]pyridin-3-yl]-3-[3-[[ethyl(methyl)sulfamoyl]amino]-2,6-difluorobenzoyl]-1H-pyrrolo[2,3-b]pyridine]	74 nM	24%	–
CCN(C)S(=O)(=O)Nc1ccc(F)c(C(=O)c2c[nH]c3ncc(-c4ccc(CN5CCN(C6CCN(C(=O)CN7CCC(c8ccc(NC9CCC(=O)NC9=O)cc8)CC7)CC6)CC5)cc4)cc23)c1F (stereo not drawn) [Example A13, 5-[4-[[4-[1-[2-[4-[4-[(2,6-Dioxopiperidin-3-yl)amino]phenyl]piperidin-1-yl]acetyl]piperidin-4-yl]piperazin-1-yl]methyl]phenyl]-3-[3-[[ethyl(methyl)sulfamoyl]amino]-2,6-difluorobenzoyl]-1H-pyrrolo[2,3-b]pyridine]	91 nM	23%	–
CCN(C)S(=O)(=O)Nc1ccc(F)c(C(=O)c2c[nH]c3ncc(-c4ccc(N5CCN(C(=O)CN6CCC(c7ccc(OC8CCC(=O)NC8=O)cc7)CC6)CC5)cc4)cc23)c1F (stereo not drawn) [Example A14, 5-[4-[4-[2-[4-[4-(2,6-Dioxopiperidin-3-yl)oxyphenyl]piperidin-1-yl]acetyl]piperazin-1-yl]phenyl]-3-[3-[[ethyl(methyl)sulfamoyl]amino]-2,6-difluorobenzoyl]-1H-pyrrolo[2,3-b]pyridine]	10.6 nM	9.74%	–
CCN(C)S(=O)(=O)Nc1ccc(F)c(C(=O)c2c[nH]c3ncc(-c4ccc(N5CCN(C(=O)CCCN6CCC(c7ccc(OC8CCC(=O)NC8=O)cc7)CC6)CC5)cc4)cc23)c1F (stereo not drawn) [Example A15, 5-[4-[4-[4-[4-[4-(2,6-Dioxopiperidin-3-yl)oxyphenyl]piperidin-1-yl]butanoyl]piperazin-1-yl]phenyl]-3-[3-[[ethyl(methyl)sulfamoyl]amino]-2,6-difluorobenzoyl]-1H-pyrrolo[2,3-b]pyridine]	24 nM	14%	–
CCN(C)S(=O)(=O)Nc1ccc(F)c(C(=O)c2c[nH]c3ncc(-c4cnc(N5CCN(C(=O)CN6CCN(c7ccc(NC8CCC(=O)NC8=O)cc7)CC6)CC5)nc4)cc23)c1F (stereo not drawn) [Example A16, 5-[2-[4-[2-[4-[4-[(2,6-Dioxopiperidin-3-yl)amino]phenyl]piperazin-1-yl]acetyl]piperazin-1-yl]pyrimidin-5-yl]-3-[3-[[ethyl(methyl)sulfamoyl]amino]-2,6-difluorobenzoyl]-1H-pyrrolo[2,3-b]pyridine]	8 nM	11%	–
CCN(C)S(=O)(=O)Nc1ccc(F)c(C(=O)c2c[nH]c3ncc(-c4ccc(N5CCN(C(=O)CCCN6CCC(c7ccc(NC8CCC(=O)NC8=O)cc7)CC6)CC5)nc4)cc23)c1F (stereo not drawn) [Example A17, 5-[6-[4-[4-[4-[4-[(2,6-Dioxopiperidin-3-yl)amino]phenyl]piperidin-1-yl]butanoyl]piperazin-1-yl]pyridin-3-yl]-3-[3-[[ethyl(methyl)sulfamoyl]amino]-2,6-difluorobenzoyl]-1H-pyrrolo[2,3-b]pyridine]	44 nM	14%	–
CCN(C)S(=O)(=O)Nc1ccc(F)c(C(=O)c2c[nH]c3ncc(-c4cnc(N5CCN(C(=O)CCCN6CCC(c7ccc(NC8CCC(=O)NC8=O)cc7)CC6)CC5)nc4)cc23)c1F (stereo not drawn) [Example A18, 5-[2-[4-[4-[4-[4-[(2,6-Dioxopiperidin-3-yl)amino]phenyl]piperidin-1-yl]butanoyl]piperazin-1-yl]pyrimidin-5-yl]-3-[3-[[ethyl(methyl)sulfamoyl]amino]-2,6-difluorobenzoyl]-1H-pyrrolo[2,3-b]pyridine]	42 nM	15%	–
CCN(C)S(=O)(=O)Nc1ccc(F)c(C(=O)c2c[nH]c3ncc(-c4ccc(CN5CCC(C(=O)N6CCN(c7ccc(OC8CCC(=O)NC8=O)cc7)CC6)C5)cc4)cc23)c1F (stereo not drawn) [Example A19, 5-[4-[[3-[4-[4-(2,6-Dioxopiperidin-3-yl)oxyphenyl]piperazine-1-carbonyl]pyrrolidin-1-yl]methyl]phenyl]-3-[3-[[ethyl(methyl)sulfamoyl]amino]-2,6-difluorobenzoyl]-1H-pyrrolo[2,3-b]pyridine]	84 nM	19%	–
CCN(C)S(=O)(=O)Nc1ccc(F)c(C(=O)c2c[nH]c3ncc(-c4ccc(CN5CCC(C(=O)N6CCC(c7ccc(OC8CCC(=O)NC8=O)cc7)CC6)C5)cc4)cc23)c1F (stereo not drawn) [Example A20, 5-[4-[[3-[4-[4-(2,6-Dioxopiperidin-3-yl)oxyphenyl]piperidine-1-carbonyl]pyrrolidin-1-yl]methyl]phenyl]-3-[3-[[ethyl(methyl)sulfamoyl]amino]-2,6-difluorobenzoyl]-1H-pyrrolo[2,3-b]pyridine]	138 nM	24%	–
CCN(C)S(=O)(=O)Nc1ccc(F)c(C(=O)c2c[nH]c3ncc(-c4ccc(CN5CCN(CC(=O)N6CCC(c7ccc(NC8CCC(=O)NC8=O)cc7)CC6)CC5)cc4)cc23)c1F.O=C(O)C(F)(F)F (stereo not drawn) [Example A21, 5-[4-[[4-[2-[4-[4-[(2,6-Dioxopiperidin-3-yl)amino]phenyl]piperidin-1-yl]-2-oxoethyl]piperazin-1-yl]methyl]phenyl]-3-[3-[[ethyl(methyl)sulfamoyl]amino]-2,6-difluorobenzoyl]-1H-pyrrolo[2,3-b]pyridine;2,2,2-trifluoroacetic acid]	21 nM	–	13%
CCN(C)S(=O)(=O)Nc1ccc(F)c(C(=O)c2c[nH]c3ncc(-c4ccc(CN5CCN(C(=O)CN6CCC(c7ccc(OC8CCC(=O)NC8=O)cc7)CC6)CC5)cc4)cc23)c1F (stereo not drawn) [Example A22, 5-[4-[[4-[2-[4-[4-(2,6-Dioxopiperidin-3-yl)oxyphenyl]piperidin-1-yl]acetyl]piperazin-1-yl]methyl]phenyl]-3-[3-[[ethyl(methyl)sulfamoyl]amino]-2,6-difluorobenzoyl]-1H-pyrrolo[2,3-b]pyridine]	77 nM	20%	–
CCN(C)S(=O)(=O)Nc1ccc(F)c(C(=O)c2c[nH]c3ncc(-c4ccc(CN5CCN(C(=O)CN6CCC(c7ccc(NC8CCC(=O)NC8=O)cc7)CC6)CC5)cc4)cc23)c1F (stereo not drawn) [Example A23, 5-[4-[[4-[2-[4-[4-[(2,6-Dioxopiperidin-3-yl)amino]phenyl]piperidin-1-yl]acetyl]piperazin-1-yl]methyl]phenyl]-3-[3-[[ethyl(methyl)sulfamoyl]amino]-2,6-difluorobenzoyl]-1H-pyrrolo[2,3-b]pyridine]	19 nM	13%	–
CCN(C)S(=O)(=O)Nc1ccc(F)c(C(=O)c2c[nH]c3ncc(-c4ccc(CN5CCN(C(=O)CN6CCN(c7ccc(NC8CCC(=O)NC8=O)cc7)CC6)CC5)cc4)cc23)c1F.O=C(O)C(F)(F)F (stereo not drawn) [Example A24, 5-[4-[[4-[2-[4-[4-[(2,6-Dioxopiperidin-3-yl)amino]phenyl]piperazin-1-yl]acetyl]piperazin-1-yl]methyl]phenyl]-3-[3-[[ethyl(methyl)sulfamoyl]amino]-2,6-difluorobenzoyl]-1H-pyrrolo[2,3-b]pyridine; 2,2,2-trifluoroacetic acid]	30 nM	–	13%
